No end group written: not given here.
T1: MNLNI (SAT C-terminal pentapeptide) (Haemophilus influenzae)
T1 chain: MNLNI

B1: HiOASS-A (protein)
chain: MAIYADNSYSIGNTPLVRLKHFGHNGNVVVKIEGRNPSYSVKCRIGANMVWQAEKDGTLTKGKEIVDATSGNTGIALAYVAAARGYKITLTMPETMSLERKRLLCGLGVNLVLTEGAKGMKGAIAKAEEIVASDPSRYVMLKQFENPANPQIHRETTGPEIWKDTDGKVDVVVAGVGTGGSITGISRAIKLDFGKQITSVAVEPVESPVISQTLAGEEVKPGPHKIQGIGAGFIPKNLDLSIIDRVETVDSDTALATARRLMAEEGILAGISSGAAVAAADRLAKLPEFADKLIVVILPSASERYLSTALFEGIEG

What was measured:
HiOASS-A = HiOASS-A (Haemophilus influenzae, UniProt P45040); test: biochemical
[1] = molecular target: T1, MNLNI (SAT C-terminal pentapeptide); test: fluorescence titration

| Molecule | Kd (HiOASS-A) [mM] | Kd [1] [mM] |
| --- | --- | --- |
| MNENI [MNENI] | ~7 | – |
| B1 | – | 0.044 |

Source: article PMC2804909 (Journal of medicinal chemistry, 2010)
